# Experimental data published in patent EP0205025A1, “Fluorine derivatives of vitamin D3 and cell differentiation-inducing agents containing the same as an active ingredient” (SUMITOMO PHARMACEUTICALS COMPANY, LIMITED, priority 1985, dated 1986).
# Legend:
# [1] = system: HL-60 cells; assay: NBT reduction of HL-60 cells after treatment (TPA stimulation, microscopy); assay type: cell-based, human; details: HL-60 treated 4 days, percentage of NBT reduction-positive cells of 200 cells
# Description: Thereafter, the cells were smeared onto a slide glass, subjected to giemsa staining, and the coloration of cells was examined under a microscope. The number of colored cells was measured for 200 cells, and the results were expressed in terms of the percentage of NBT reduction- positive cells.
# [2] = system: HL-60 cells; assay: Binding property of monoclonal antibodies (MAS 072 anti-human monocyte, OKT 9 anti-human transferrin receptor) to treated HL-60 cells, indirect fluorescent antibody technique, FACS; assay type: cell-based; details: for Binding property of monoclonal antibody MAS072 (%): anti-human monocyte antibody, control 17.0; for Binding property of monoclonal antibody OKT9 (%): anti-human transferrin receptor antibody, control 95.7
# Description: HL-60 cells wre treated with the agent as described above, and then stained by indirect fluorescent antibody technique using monoclonal antibodies [MAS 072 (Sera-lab) anti-human monocyte and OKT 9 (Ortho-mune) anti-human transferrin receptor] and a fluorescent antibody [FITC-anti-mouse IgG (Miles)], and the resulting fluorescence intensity was determined by FACS to obtain the binding property of the monoclonal antibody in terms of a percentage.
# [3] = system: HL-60 cells; assay: Proliferation-suppression rate of HL-60 cells (Coulter counter); assay type: cell-based; details: Homo sapiens, 96 h, HL-60, 4 days, relative to untreated group; for inhibition at 0.01 µM: 1x10^-8 M (column of 1α, 25-(OH)2D3 printed 1x10^8); for inhibition at 0.003 µM: 3x10^-9 M
# Description: An HL-60 cell fluid adjusted to a concentration of 5 x 10^4 cells/ml was incorporated with each of the agents to be tested and cultivated in a carbon dioxide incubator at 37°C for 4 days. After the cultivation, the number of cells was measured by means of a Coulter counter. The percentage of the number thus measured relative to the number of cells in an untreated group was calculated, from which the proliferation-suppression rate was obtained.
# [4] = 1x10^-8 M (column of 1α, 25-(OH)2D3 printed 1x10^8)
Compound,"NBT reduction rate (%) [1, 4] [%]",NBT reduction rate (%) ([1]; 3x10^-9 M),"Binding property of monoclonal antibody MAS072 (%) [2, 4] [%]","Binding property of monoclonal antibody OKT9 (%) [2, 4] [%]",Binding property of monoclonal antibody OKT9 (%) ([2]; 3x10^-9 M),inhibition at 0.01 µM [3] [%],inhibition at 0.003 µM [3] [%]
"C=C1C(=CC=C2CCCC3(C)C2CCC3C(C)CCCC(C(F)(F)F)C(F)(F)F)CC(O)CC1O (centres unmarked) [Compound A, 26,26,26,27,27,27-hexafluoro-la-hydroxyvitamin D3]",91.5,77.0,79.0,11.1,16.7,74.9,58.5
"C=C1C(=CC=C2CCCC3(C)C2CCC3C(C)CCCC(C)(C)O)CC(O)CC1O (stereo not drawn) [1α, 25-(OH)2D3, 1α, 25-dihydroxyvitamin D3]",87.0,48.5,55.8,22.6,61.5,66,47.2
